Assay results: patent US20110207729A1, “BICYCLIC ACYLGUANIDINE DERIVATIVE” (ASTELLAS PHARMA INC., priority 2007, published 2011)

Assays:
human 5-HT5A receptor = target: T1, human 5-HT5A receptor (Homo sapiens, UniProt P47898); test: Test on a human 5-HT5A receptor binding inhibition ([3H]5-CT); conditions: membrane from HEK293 cells expressing human 5-HT5A receptor; Ki calculated from IC50 and Kd 4.95 nM
T1 construct: expressed in transfected cells; membrane preparation
Outline: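 Membranes came from G418-selected HEK293 cells expressing human 5-HT5A, in Tris pH 7.4 with MgSO4 and EDTA. They were preincubated 15 min at RT with compound, then 2 nM [3H]5-CT solution was added for 60 min at 37 °C, followed by GF/C filtration and counting. IC50 used 1 µM 5-CT as 100%; Ki by Cheng–Prusoff (Kd 4.95 nM, Scatchard).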

Male ICR mouse [1] = test: Hyperactivity caused by MK-801 in mice, infrared motion measurement; assay type: in vivo; conditions: oral, MK-801 0.3 mg/kg i.p., P<0.05
Procedure: (§1) Various Drug Evaluations on a Drug for Increasing the Motion of Mice (methamphetamine, MK-801) (Radiated Infrared Motion Measurement)
(§2) An effect of the compound (I) on improvement on schizophrenia by was evaluated by measuring the inhibited motion through the administration of the compound in a model having a symptom caused by methamphetamine (which is hereinafter simply referred to MAP) and MK-801.
(§3) An animal was taken out of a breeding cage, orally administered with a compound to be tested, and then placed into a cage for breeding. After 30 minutes, the animal was put into a cage for measurement, and the motion with the compound to be tested alone was measured. Further, after 30 to 90 minutes, the animal was taken out, and intraperitoneally administered with a drug for increasing the motion (MAP; 1 mg/kg or MK-801; 0.3 mg/kg, dissolved in a physiological saline, respectively). Then, the motion for a certain period of time (60 minutes) was measured by using a motion measurement device (CompACT AMS from Muromachi Kikai Co., Ltd.) by means of an infrared sensor.
(§4) For a normal mouse (a mouse administered with physiological saline) and a mouse administered with a drug for increasing the motion, a Student's T test was performed for evaluation for each interval. […]

Male ICR mouse [2] = test: Hyperactivity caused by methamphetamine (MAP) in mice, infrared motion measurement; assay type: in vivo; conditions: dose of 0.03 mg/kg, oral; MAP 1 mg/kg i.p.; P<0.05
Procedure: as §1, §2, §3, §4

Male ddY mouse = test: Spontaneous alternation behavior (Y-maze) impaired by Scoporamine in mice; assay type: in vivo; conditions: dose of 0.03 mg/kg, oral, Scoporamine 0.5 mg/kg i.p., p<0.05
Procedure: An improvement effect for spontaneous alternation behavior caused by Scoporamine or MK-801 in mice
An effect of the compound (I) on improvement on cognitive impairment was evaluated by using a known performance test method as a model with short-term learning disorder.
The compound to be tested was administered orally 10 to 30 minutes before the test, and 0.5 mg/kg Scoporamine or 0.15 mg/kg MK-801 (for a normal group, physiological saline) was administered intraperitoreally, and the test was performed after 20 minutes. […]
A mouse was placed at the end of one arm of a Y-maze having arms with the same length in three directions, and then explored freely and the number of arm entries was counted for 8 minutes. […] The ratio of the number of the behaviors to the total number of entries was calculated as an alternation rate by the following formula: […]
If a significant difference between the normal group and the control group (Student's t test) was approved in the alternation rate (%), it was considered to have learning disorder by the administration of Scoporamine or MK-801. By carrying out a Dunnett's test on the group administered with the compound to be tested relative to the control group, the presence or absence of an action of the compound to be tested on learning disorder was evaluated. […]

T1 sequence (P47898 whole entry): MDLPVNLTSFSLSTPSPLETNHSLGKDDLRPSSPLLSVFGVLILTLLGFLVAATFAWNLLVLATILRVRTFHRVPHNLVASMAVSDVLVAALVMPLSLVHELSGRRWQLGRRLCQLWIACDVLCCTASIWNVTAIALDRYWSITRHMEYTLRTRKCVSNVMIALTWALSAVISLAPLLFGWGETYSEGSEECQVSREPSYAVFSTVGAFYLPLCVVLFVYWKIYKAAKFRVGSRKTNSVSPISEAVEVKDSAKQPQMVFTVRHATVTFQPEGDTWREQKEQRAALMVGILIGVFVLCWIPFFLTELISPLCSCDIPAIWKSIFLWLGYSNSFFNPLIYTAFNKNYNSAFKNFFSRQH

Row | SMILES | Ki (human 5-HT5A receptor) | inhibition of hyperactivity caused by MK-801 (Male ICR mouse [1]; dose of 0.1 mg/kg) | inhibition of hyperactivity caused by MK-801 (Male ICR mouse [1]; dose of 0.03 mg/kg) | inhibition of hyperactivity caused by methamphetamine (Male ICR mouse [2]) | improvement of alternation rate impaired by Scoporamine (Male ddY mouse)
1 | Cc1ccc(C2=CCOc3ccc(C(=O)N=C(N)N)cc32)c(F)c1 [Example 1-47] | 0.3 to 3 nM | significantly inhibited | – | – | –
2 | COc1ccccc1C1=CCCc2ccc(C(=O)N=C(N)N)cc21 [Example 2-06] | 0.3 to 3 nM | – | significantly inhibited | – | –
3 | NC(N)=NC(=O)c1ccc2c(c1)C(c1ccccc1)=CCC2 [Example 2-37] | 0.3 to 3 nM | – | – | significantly inhibited | significantly improved
